Results on 31 compounds are retold here after US9637469B2, “Pyridine derivative” (Teijin Pharma Limited, priority 2012, dated 2017).

pIC50: −log10 of the molar value.

In the first assay the target is T1, human URAT1 (Homo sapiens, UniProt Q96S37).
T1 construct: Full-length cDNA of human URAT1 (hURAT1)
T1 sequence (Q96S37 1-553): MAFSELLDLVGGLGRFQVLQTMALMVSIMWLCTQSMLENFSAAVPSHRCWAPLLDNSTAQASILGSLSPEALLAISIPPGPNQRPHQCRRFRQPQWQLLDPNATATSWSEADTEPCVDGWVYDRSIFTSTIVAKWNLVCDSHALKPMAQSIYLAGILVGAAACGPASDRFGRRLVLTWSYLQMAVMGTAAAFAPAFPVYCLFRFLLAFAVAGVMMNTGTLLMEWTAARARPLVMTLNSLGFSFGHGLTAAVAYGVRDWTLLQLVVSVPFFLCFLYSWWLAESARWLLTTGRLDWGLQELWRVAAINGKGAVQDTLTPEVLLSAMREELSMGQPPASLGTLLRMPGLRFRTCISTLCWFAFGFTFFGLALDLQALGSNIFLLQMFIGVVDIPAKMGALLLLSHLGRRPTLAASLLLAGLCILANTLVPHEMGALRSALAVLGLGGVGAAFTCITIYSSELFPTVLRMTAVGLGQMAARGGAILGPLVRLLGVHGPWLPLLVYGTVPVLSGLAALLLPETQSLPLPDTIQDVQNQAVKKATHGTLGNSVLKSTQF
Kind of assay: Test for inhibition of uric acid transport using human URAT1-expressing cells.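 Further: three stars up to 0.2 µM two stars 0.2-2 µM one star 2-20 µM.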 Particulars: HEK 293 cells expressing human URAT1; 14C-labeled uric acid 25 μM; uptake 37° C. for 5 min. It counts as cell-based. The essentials: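 HEK293 cells stably transfected with full-length hURAT1, preincubated 10 min at 37 °C in HBSS with NaCl replaced by Na gluconate. Uptake of 25 μM ¹⁴C-uric acid with compound ran 5 min at 37 °C, then scintillation counting. IC50 derived from % of DMSO-control URAT1-specific uptake.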
On to `CCC(O)(CC)c1nc(-c2cncc(Cl)c2)n(Cc2cc(Cl)ccc2Cl)c1C(=O)O` [Compound A216, 2-(5-chloropyridin-3-yl)-1-(2,5-dichlorobenzyl)-4-(3-hydroxypentane-3-yl)-1H-imidazole-5-carboxylic acid], for which the “Inhibitory Activity (IC50 of uric acid transport inhibition)” value (from here on “Inhibitory Activity”) is reported as “* * *”.
On the same count and under the same terms, the same measure for `Cc1cncc(-c2nc(C)c(C(=O)O)n2Cc2sc(Cl)cc2Cl)c1` [Compound A230, 1-((2,4-dichlorothiophen-5-yl)methyl)-4-methyl-2-(5-methylpyridin-3-yl)-1H-imidazole-5-carboxylic acid]: “* *”.
For the compound `CSc1nc(-c2cccnc2)n(Cc2cc(Cl)ccc2Cl)c1C(=O)O` [Compound A104, 1-(2,5-dichlorobenzyl)-4-(methylthio)-2-(pyridin-3-yl)-1H-imidazole-5-carboxylic acid], the “Inhibitory Activity” value was “* * *”.
For the compound `Cc1nc(-c2cncc(C(F)(F)F)c2)n(Cc2csc3cccc(Cl)c23)c1C(=O)O` [Compound A143, 1-((4-chlorobenzo[b]thiophen-3-yl)methyl)-4-methyl-2-(5-(trifluoromethyl)pyridin-3-yl)-1H-imidazole-5-carboxylic acid], the “Inhibitory Activity” value is listed as “* * *”.
The same measure, in the same setting: the same measure for `CS(=O)(=O)N1CCN(Cc2nc(-c3cncc(Cl)c3)n(Cc3cc(Cl)ccc3Cl)c2C(=O)O)CC1` [Compound A203, 2-(5-chloropyridin-3-yl)-1-(2,5-dichlorobenzyl)-4-((4-(methylsulfonyl)piperazin-1-yl)methyl)-1H-imidazole-5-carboxylic acid]: “* *”.
Still for that read-out and setting: the same measure for `CCc1nc(-c2cncc(Cl)c2)n(Cc2cc(Cl)ccc2Cl)c1C(=O)O` [Compound A151, 2-(5-chloropyridin-3-yl)-1-(2,5-dichlorobenzyl)-4-ethyl-1H-imidazole-5-carboxylic acid]: “* * *”.
The same measure, in the same setting: the same measure for `Cc1cncc(-c2nc(Cl)c(C(=O)O)n2Cc2cc(Cl)ccc2Cl)c1` [Compound A219, 4-chloro-1-(2,5-dichlorobenzyl)-2-(5-methylpyridin-3-yl)-1H-imidazole-5-carboxylic acid]: “* * *”; for `Cc1nc(-c2cncc(Cl)c2)n(Cc2csc3ccccc23)c1C(=O)O` [Compound A132, 1-(benzo[b]thiophen-3-ylmethyl)-2-(5-chloropyridin-3-yl)-4-methyl-1H-imidazole-5-carboxylic acid]: “* *”.
Turning to `O=C(O)c1ccc(-c2cccnc2)n1Cc1csc2cccc(Cl)c12` [Compound B10, 1-((4-chlorobenzo[b]thiophen-3-yl)methyl)-2-(pyridin-3-yl)-1H-pyrrole-5-carboxylic acid], the “Inhibitory Activity” value is on record as “* * *”.
Still for that read-out and setting: the same measure for `CCc1nc(-c2cccnc2)n(Cc2cccc3ccccc23)c1C(=O)O` [Compound A10, 4-ethyl-1-(naphthalen-1-ylmethyl)-2-(pyridin-3-yl)-1H-imidazole-5-carboxylic acid]: “* *”.
On the same count and under the same terms, the same measure for `O=C(NS(=O)(=O)C1CC1)c1c(C2CC2)nc(-c2cccnc2)n1Cc1cccc2ccsc12` [Compound A118, 1-(benzo[b]thiophen-7-ylmethyl)-4-cyclopropyl-N-(cyclopropylsulfonyl)-2-(pyridin-3-yl)-1H-imidazole-5-carboxamide]: “* *”; for `Cc1cncc(-c2ccc(C(=O)O)n2Cc2csc3cccc(Cl)c23)c1` [Compound B15, 1-((4-chlorobenzo[b]thiophen-3-yl)methyl)-2-(5-methylpyridin-3-yl)-1H-pyrrole-5-carboxylic acid]: “* * *”.
The same measure, in the same setting: for `CC(C)c1nc(-c2cncc(F)c2)n(Cc2cccc3ccccc23)c1C(=O)O` [Compound A152, 2-(5-fluoropyridin-3-yl)-4-isopropyl-1-(naphthalen-1-ylmethyl)-1H-imidazole-5-carboxylic acid] the value was “* *”.
On to `Cc1nc(-c2cncc(-c3ccccc3)c2)n(Cc2cc(Cl)ccc2Cl)c1C(=O)O` [Compound A176, 1-(2,5-dichlorobenzyl)-4-methyl-2-(5-phenylpyridin-3-yl)-1H-imidazole-5-carboxylic acid], for which the “Inhibitory Activity” value was “* * *”.
The same measure, in the same setting: the same measure for `Cc1nc(-c2cncc(OCc3ccccc3)c2)n(Cc2cc(Cl)ccc2Cl)c1C(=O)O` [Compound A190, 2-(5-(benzyloxy)pyridin-3-yl)-1-(2,5-dichlorobenzyl)-4-methyl-1H-imidazole-5-carboxylic acid]: “* *”.
Consider `Cc1nc(-c2ccncc2)n(Cc2cc(Cl)ccc2Cl)c1C(=O)O` [Compound A244, 1-(2,5-dichlorobenzyl)-4-methyl-2-(pyridin-4-yl)-1H-imidazole-5-carboxylic acid], for which the “Inhibitory Activity” value was “* *”.
Same read-out and setting: the same measure for `COc1nc(-c2cccnc2)n(Cc2cc(Cl)ccc2Cl)c1C(=O)O` [Compound A96, 1-(2,5-dichlorobenzyl)-4-methoxy-2-(pyridin-3-yl)-1H-imidazole-5-carboxylic acid]: “* * *”; for `Cc1nc(-c2cncc(C3CC3)c2)n(Cc2cc(Cl)ccc2Cl)c1C(=O)O` [Compound A168, 2-(5-cyclopropylpyridin-3-yl)-1-(2,5-dichlorobenzyl)-4-methyl-1H-imidazole-5-carboxylic acid]: “* * *”.
Turning to `Cc1nc(Oc2cncc(Cl)c2)n(Cc2cc(Cl)ccc2Cl)c1C(=O)O` [Compound A250, 2-((5-chloropyridin-3-yl)oxy)-1-(2,5-dichlorobenzyl)-4-methyl-1H-imidazole-5-carboxylic acid], the “Inhibitory Activity” value is reported as “* * *”.
Same read-out and setting: for `Cc1ccc(C)c(Cn2c(-c3cncc(Cl)c3)nc(C)c2C(=O)O)c1` [Compound A179, 2-(5-chloropyridin-3-yl)-1-(2,5-dimethylbenzyl)-4-methyl-1H-imidazole-5-carboxylic acid] the value was “* * *”.
Same read-out and setting: for `Cc1nc(-c2cncc(OC(C)C)c2)n(Cc2cc(Cl)ccc2Cl)c1C(=O)O` [Compound A175, 1-(2,5-dichlorobenzyl)-2-(5-isopropoxypyridin-3-yl)-4-methyl-1H-imidazole-5-carboxylic acid] the value was “* *”.
On the same count and under the same terms, the same measure for `Cc1nc(Oc2cncc(Br)c2)n(Cc2cc(Cl)ccc2Cl)c1C(=O)O` [Compound A251, 2-((5-bromopyridin-3-yl)oxy)-1-(2,5-dichlorobenzyl)-4-methyl-1H-imidazole-5-carboxylic acid]: “* * *”; for `O=C(O)c1c(C(F)(F)F)nc(-c2cccnc2)n1Cc1csc2cccc(Br)c12` [Compound A31, 1-((4-bromobenzo[b]thiophen-3-yl)methyl)-2-(pyridin-3-yl)-4-(trifluoromethyl)-1H-imidazole-5-carboxylic acid]: “* *”; for `O=C(O)c1ccc(-c2cncc(F)c2)n1Cc1cc(Cl)ccc1Cl` [Compound B14, 1-(2,5-dichlorobenzyl)-2-(5-fluoropyridin-3-yl)-1H-pyrrole-5-carboxylic acid]: “* * *”.
With `CCN(CC)Cc1nc(-c2cncc(Cl)c2)n(Cc2cc(Cl)ccc2Cl)c1C(=O)O` [Compound A193, 2-(5-chloropyridin-3-yl)-1-(2,5-dichlorobenzyl)-4-((diethylamino)methyl)-1H-imidazole-5-carboxylic acid], the “Inhibitory Activity” value was “* * *”.
The same measure, in the same setting: the same measure for `O=C(O)c1c(C(F)F)nc(-c2cncc(Cl)c2)n1Cc1cc(Cl)ccc1Cl` [Compound A207, 2-(5-chloropyridin-3-yl)-1-(2,5-dichlorobenzyl)-4-(difluoromethyl)-1H-imidazole-5-carboxylic acid]: “* * *”; for `Cc1cncc(-c2nc(C)c(C(=O)O)n2Cc2cc(C)ccc2Cl)c1` [Compound A231, 1-(2-chloro-5-methylbenzyl)-4-methyl-2-(5-methylpyridin-3-yl)-1H-imidazole-5-carboxylic acid]: “* * *”.

The same assay, now with this note: HEK 293 cells expressing human URAT1; 14C-labeled uric acid 25 μM; uptake 37° C. for 5 min; read-out: Inhibitory Activity (IC50 of uric acid transport inhibition).
The term pIC50 denotes the IC50 on a negative log10 scale, so that one unit is a factor of ten. `Cc1nc(-c2cccnc2)n(Cc2cccc3ccsc23)c1C(=O)NS(=O)(=O)C1CC1` [Compound A116]: the pIC50 is 4.70 to 5.70.
The same measure, in the same setting: the same measure for `Cc1nc(-c2cccnc2)n(Cc2ccccc2C#N)c1C(=O)O` [Compound A64]: 4.70 to 5.70.
Still for that read-out and setting: the same measure for `COc1ncccc1-c1nc(C)c(C(=O)O)n1Cc1cccc2ccccc12` [Compound A125]: 4.70 to 5.70; for `Cc1nc(-c2cccnc2)n(Cc2ccc(Cl)cc2)c1C(=O)O` [Compound A53]: 4.70 to 5.70.
